Measured values reported in US20110293746A1, “Modulation of Gsk-3Beta and Method of Treating Proliferative Disorders” (Agency For Science, Technology and Research, priority 2004, published 2011).
“Also recorded” adds a separate entry of the source.

Tests used:
p53 in HCT116 cells = assay: p53 accumulation in cytosol and mitochondria (subcellular fractionation, Western blot); assay type: cell-based, Human; details: after drug treatment
Method: (§1) Western blotting, immunoprecipitation and microarray analysis: Cells were scraped, collected and lysed as described previously (Yu, Q., et al. Cancer Res, 62: 5743-5748, 2002). Briefly, cells were lysed with cell lysis buffer (0.3% NP40, 1 mM EDTA, 50 mM Tris-HCl (pH 7.4), 2 mM EGTA, 1% Triton X-100, […], 25 mM NaF, 1 mM Na3VO4, 2 mM AEBSF, 5 μg/ml aprotinin, 1 μg/ml leupeptin) for 30 minutes on ice, and the lysates were clarified by centrifugation at 12,000×g for 15 minutes at 4° C. Protein concentration was quantified (Bio-Rad, Hercules, Calif.) and protein samples (50 μg) were separated by SDS/PAGE and transferred onto Immobilon™ membranes (Millipore, Bedford, Mass.). Antibodies against the following proteins were used: p53 (DO-1), p21, PARP, GSK-α/β, α-Tubulin, and β-actin (Santa Cruz Biotechnology), Puma (Ab-1, Oncogene), Bax (Sigma), phosphor-(Ser9/21)-GSK-3α/β and Caspase-9 (Cell Signaling Technologies), phosphor-(Tyr216/279)-GSK-3α/β (Upstate Biotechnologies), cytochrome c (BD PharMingen). To detect Bax conformational change, cells were lysed in 1% Chaps buffer and the soluble fraction was immunoprecipitated with anti-Bax monoclonal antibody (6A7, BD, PharMingen), followed by immunoblotting with anti-Bax polyclonal antibody. Microarray analysis was performed as described (Kho, P. S., et al. J Biol Chem, 279: 21183-21192, 2004).
(§2) Subcellular fractionation: Cells were lysed in mitochondria lysis buffer (210 mM Mannitol, 70 mM Sucrose, 10 mM Hepes (pH, 7.4), 1 mM EDTA, protease inhibitor cocktail) with a Dounce homogenizer and subjected to centrifugation at 1000×g to pellet the nuclei. Post-nuclear supernatant was centrifuged at 10,000×g to pellet the mitochondria-enriched heavy membrane fraction, and the resulting supernatant was further centrifuged to obtain cytosolic fraction. Total proteins (30 μg) from cytosolic or mitochondrial fractions were subjected to immunoblot analysis.

HCT116 cells = assay: FACS analysis of DNA content (sub-G1 apoptotic fraction); assay type: cell-based, Human; details: for effect on ADR-treated cells (apoptosis): concentrations up to 20 μM, with ADR
Method: Cell culture and drug treatments: Human colon cancer cell line HCT116 and its derived isogenic p53^−/−, Puma^−/−, Bax^−/− and p53-inducible DLD cell lines were kindly provided by Dr. Bert Vogelstein (Johns Hopkins University, MD). RKO and RKO/E6 cells were from ATCC. Cells were cultured in DMEM containing 10% FBS. All culture reagents and media were from Invitrogen. 5-Fluorouracil, Adriamycin, etoposide and lithium chloride were purchased from Sigma. GSK-3β specific small molecule inhibitor LY2119301 was a gift from Eli Lilly (Indianapolis) and SB-216763, SB-415283 were obtained from BIOMOL.
FACS analysis of DNA content and caspase-3 activity: Cells were harvested and fixed in 70% ethanol. Fixed cells were stained with propidium iodide (50 μg/ml) after treatment with RNase (100 μg/ml). The stained cells were analyzed for DNA content by fluorescence-activated cell sorting (FACS) in a FACScalibur™ (Becton Dickinson Instrument, San Jose, Calif.). Cell cycle fractions were quantified using the CellQues™ software (Becton Dickinson). To measure caspase-3 activity, cells were fixed with Cytofix/Cytoperm™ solution (BD PharMingen) as instructed, and then stained with FITC-conjugated rabbit anti-active caspase-3 monoclonal antibody (BD PharMingen). Quantification of cells positive for the caspase-3 detection was performed by flow cytometry.

GSK-3α = biological target: T1, GSK-3α (Homo sapiens, UniProt P49840); assay: Immunoblot analysis of GSK-3 phosphorylation status in HCT116 cells; assay type: cell-based; details: HCT116 whole lysate immunoblot
T1 construct: endogenous in cells; host or cells: HCT116
T1 sequence (P49840 whole entry): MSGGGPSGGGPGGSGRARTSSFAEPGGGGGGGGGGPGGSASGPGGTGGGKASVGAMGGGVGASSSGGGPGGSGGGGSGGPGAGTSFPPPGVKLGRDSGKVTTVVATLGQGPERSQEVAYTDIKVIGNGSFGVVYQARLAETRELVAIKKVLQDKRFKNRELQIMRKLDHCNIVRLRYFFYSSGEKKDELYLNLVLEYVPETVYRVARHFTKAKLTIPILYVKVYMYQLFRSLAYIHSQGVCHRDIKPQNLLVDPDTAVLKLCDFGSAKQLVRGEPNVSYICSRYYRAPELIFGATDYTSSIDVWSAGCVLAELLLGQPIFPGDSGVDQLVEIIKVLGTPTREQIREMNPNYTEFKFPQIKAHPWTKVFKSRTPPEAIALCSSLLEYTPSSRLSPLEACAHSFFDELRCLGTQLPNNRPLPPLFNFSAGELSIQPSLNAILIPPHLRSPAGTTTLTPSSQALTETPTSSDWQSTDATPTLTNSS
Method: (§3) Protein concentration was quantified (Bio-Rad, Hercules, Calif.) and protein samples (50 μg) were separated by SDS/PAGE and transferred onto Immobilon™ membranes (Millipore, Bedford, Mass.). […] To detect Bax conformational change, cells were lysed in 1% Chaps buffer and the soluble fraction was immunoprecipitated with anti-Bax monoclonal antibody (6A7, BD, PharMingen), followed by immunoblotting with anti-Bax polyclonal antibody.
as §2

GSK-3β = biological target: T2, GSK-3β (Homo sapiens, UniProt P49841); assay: as above; assay type: cell-based
T2 construct: endogenous in cells; host or cells: HCT116
T2 sequence (P49841 whole entry): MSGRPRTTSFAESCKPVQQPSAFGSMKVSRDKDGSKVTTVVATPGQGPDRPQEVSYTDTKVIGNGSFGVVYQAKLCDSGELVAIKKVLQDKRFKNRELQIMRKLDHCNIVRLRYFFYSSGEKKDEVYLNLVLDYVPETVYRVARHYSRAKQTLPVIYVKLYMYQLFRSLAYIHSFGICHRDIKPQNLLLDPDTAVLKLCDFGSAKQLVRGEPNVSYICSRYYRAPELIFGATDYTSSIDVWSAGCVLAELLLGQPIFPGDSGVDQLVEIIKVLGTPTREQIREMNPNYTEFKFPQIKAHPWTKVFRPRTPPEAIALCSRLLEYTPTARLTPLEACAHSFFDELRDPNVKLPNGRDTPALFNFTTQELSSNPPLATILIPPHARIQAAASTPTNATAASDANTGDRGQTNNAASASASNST
Method: as §3, §2

[1] = system: p53 and p53 targets in HCT116 cells; assay: Immunoblot analyses of p53 and p53 targets; assay type: cell-based, Human; details: for cleavage of PARP: cells treated with genotoxic agents; for p53-mediated p21 induction / p53 accumulation / stability in response to DNA damage: with ADR, etoposide or 5-FU, HCT116 (LY2119301 also RKO)
Method: as §1

GSK-3α and GSK-3β = details: in vitro, Coghlan et al. 2000; cited from earlier work

Row | activating tyrosine phosphorylation on GSK-3α (GSK-3α) | inhibitory serine 21 phosphorylation on GSK-3α (GSK-3α) | inhibitory serine 9 phosphorylation on GSK-3β (GSK-3β; HCT116 whole lysate immunoblot) | tyrosine phosphorylation of GSK-3β (GSK-3β; nuclear and cytoplasmic fractions) | levels and phosphorylation states of cytosolic and nuclear GSK-3α and GSK-3β (GSK-3β; after etoposide treatment alone) | Structure (SMILES) | time of p53 accumulation in the cytosol (not seen until) (p53 in HCT116 cells) [h] | time of p53 accumulation in the mitochondria (as early as) (p53 in HCT116 cells) [h] | effect on ADR-treated cells (apoptosis) (HCT116 cells) | cleavage of PARP [1] | p53-mediated p21 induction [1] | p53 accumulation / stability in response to DNA damage [1] | p53-mediated p21 induction ([1]; listed as SB-126763) | p53 accumulation / stability in response to DNA damage ([1]; listed as SB-126763) | inhibition of GSK-3α versus GSK-3β (GSK-3α and GSK-3β) | apoptosis by etoposide alone despite mitochondrial p53 accumulation (HCT116 cells; etoposide without GSK-3β inhibitor)
1 | – | – | – | – | – | O=c1[nH]cc(F)c(=O)[nH]1 [5-FU, 5-fluorouracil] | 6 | 2 | – | – | – | – | – | – | – | –
2 | reduced | induced | slightly reduced | did not block | – | Cn1cc(C2=C(c3ccc(Cl)cc3Cl)C(=O)NC2=O)c2ccccc21 [SB-216763] | – | – | no effect | did not induce | no affect | no affect | no effect | no effect | equally effective | –
3 | – | – | – | – | – | O=C1NC(=O)C(c2ccccc2[N+](=O)[O-])=C1Nc1ccc(O)c(Cl)c1 [SB-415286] | – | – | no effect | did not induce | no affect; also recorded: no effect | no affect; also recorded: no effect | – | – | – | –
4 | – | – | – | – | no changes | COc1cc([C@@H]2c3cc4c(cc3[C@@H](O[C@@H]3O[C@@H]5CO[C@@H](C)O[C@H]5[C@H](O)[C@H]3O)[C@H]3COC(=O)[C@H]23)OCO4)cc(OC)c1O [etoposide] | 6 | 2 | – | – | – | – | – | – | – | failed to induce apoptosis
